Measurements: ChEMBL document CHEMBL4190400, “Identification of Potent Ebola Virus Entry Inhibitors with Suitable Properties for in Vivo Studies” (J Med Chem, 2018)
≈ marks a conversion by molar mass, not a printed value.

Tests used:
[1] = test system: Ebolavirus; assay: Antiviral activity against VSV pseudotyped Ebolavirus expressing M-GFP infected in African green monkey Vero E6 cells assessed as inhibition of viral infection pre-incubated for 2 hrs before infection and measured after 8 to 12 hrs by fluorescence microscopic method; type: functional, Vero C1008
[2] = Stability of the compound in mouse plasma at 10 uM assessed as compound remaining after 4 hrs by LC-MS/MS analysis; type: ADME, cell-free; details: read-out: Stability
[3] = physchem; details: phosphate buffered saline, pH 7.4
[4] = in vitro; details: mouse, plasma
[5] = Half life in mouse liver microsomes at 1 uM after 60 mins in presence of NADPH by LC-MS/MS analysis; type: ADME, microsome

Row | Structure (SMILES) | IC50 ([1]; Orthoebolavirus, Vero C1008) [nM] | also measured
1 | COC(=O)c1ccc(COc2ccc(F)cc2CN2CCN(C(=O)CNC(=O)CC34CC5CC(CC(C5)C3)C4)CC2)cc1 | 1.4 | –
2 | COC(=O)c1ccc(COc2ccccc2CN2CCN(C(=O)CNC(=O)CC3CCC(F)(F)CC3)CC2)cc1 | 50 | –
3 | O=C(CC12CC3CC(CC(C3)C1)C2)NCC(=O)N1CCN(Cc2cc(Br)ccc2F)CC1 | 1200 | –
4 | COC(=O)c1ccc(COc2ccc(OC)cc2CN2CCN(C(=O)CNC(=O)CC34CC5CC(CC(C5)C3)C4)CC2)cc1 | 1400 | –
5 | COC(=O)c1cccc(-c2ccc(Cl)cc2CN2CCN(C(=O)CNC(=O)CC34CC5CC(CC(C5)C3)C4)CC2)c1 | 250 | –
6 | [2H]C([2H])(c1cc(Cl)ccc1N)N1CCN(C(=O)CNC(=O)C2CC23CCC(F)(F)CC3)CC1 (stereo in doubt; 3-19) | – | IC50 ([1]; vero c1008): 180 nM
7 | O=C(NCC(=O)N1CCN(Cc2cc(Cl)ccc2O)CC1)C1CC12CCC(F)(F)CC2 (racemic) | 180 | –
8 | NC(=O)c1ccc(Cl)cc1CN1CCN(C(=O)CNC(=O)CC23CC4CC(CC(C4)C2)C3)CC1 | 1900 | –
9 | COC(=O)c1ccc(COc2ccc(C)cc2CN2CCN(C(=O)CNC(=O)CC34CC5CC(CC(C5)C3)C4)CC2)cc1 | 12 | –
10 | O=C(CC12CC3CC(CC(O)(C3)C1)C2)NCC(=O)N1CCN(Cc2ccccc2OCc2ccc(Br)cc2)CC1 | 500 | –
11 | O=C(CC12CC3CC(CC(C3)C1)C2)NCC(=O)N1CCN(Cc2ccccc2OCc2ccc(Br)cc2)CC1 | 220 | –
12 | CNS(=O)(=O)c1ccc(COc2ccccc2CN2CCN(C(=O)CNC(=O)CC34CC5CC(CC(C5)C3)C4)CC2)cc1 | 300 | –
13 | O=C(CC1CCC(F)(F)CC1)NCC(=O)N1CCN(Cc2cc(Br)ccc2O)CC1 | 790 | –
14 | COC(=O)c1ccc(COc2ccc(Cl)cc2CN2CCN(C(=O)CNC(=O)CC3CCC(F)(F)CC3)CC2)cc1 | 15 | –
15 | O=C(CC12CC3CC(CC(C3)C1)C2)NCC(=O)N1CCN(Cc2c(F)ccc(Cl)c2F)CC1 | 1350 | –
16 | [2H]C([2H])(c1cc(Cl)ccc1N)N1CCN(C(=O)CNC(=O)C2CC23CCC(F)(F)CC3)CC1 (racemic) | – | IC50 ([1]; vero c1008): 94 nM

Row | Structure (SMILES) | IC50 ([1]; Orthoebolavirus, Vero C1008) [nM] | also measured
17 | CC(=O)Nc1ccc(Cl)cc1CN1CCN(C(=O)CNC(=O)CC23CC4CC(CC(C4)C2)C3)CC1 | 950 | –
18 | Nc1ccc(Cl)cc1CN1CCN(C(=O)CNC(=O)C2CC23CCC(F)(F)CC3)CC1 (racemic) | 100 | –
19 | COC(=O)c1ccc(COc2ccc(C#N)cc2CN2CCN(C(=O)CNC(=O)CC34CC5CC(CC(C5)C3)C4)CC2)cc1 | 50 | –
20 | Nc1ccc(Cl)cc1CN1CCN(C(=O)CNC(=O)CC2CCC(F)(F)CC2)CC1 | 340 | remaining at 4 h, 10 µM [2]: 94%; solubility kinetic [3]: > 100 µM; fraction unbound at 6 h [4]: 0.131
21 | O=C(CC12CC3CC(CC(Br)(C3)C1)C2)NCC(=O)N1CCN(Cc2ccccc2OCc2ccc(Br)cc2)CC1 | 600 | –
22 | Nc1ccc(Cl)cc1CN1CCN(C(=O)CNC(=O)C2CC23CCC3)CC1 (racemic) | 2500 | –
23 | O=C(CC12CC3CC(C1)CC(c1ccccc1)(C3)C2)NCC(=O)N1CCN(Cc2ccccc2OCc2ccc(Br)cc2)CC1 | 700 | –
24 | CC1(CC(=O)NCC(=O)N2CCN(Cc3ccccc3OCc3ccc(Br)cc3)CC2)CCCCC1 | 520 | –
25 | COC(=O)c1ccc(COc2ccccc2CN2CCN(C(=O)CNC(=O)CC3CC(F)(F)C3)CC2)cc1 | 300 | –
26 | O=C(CC12CC3CC(CC(C3)C1)C2)NCC(=O)N1CCN(Cc2cc(Br)ccc2O)CC1 | 500 | –
27 | O=C(CC12CC3(F)CC(F)(CC(F)(C3)C1)C2)NCC(=O)N1CCN(Cc2ccccc2OCc2ccc(Br)cc2)CC1 | 200 | half-life at 1 µM [5]: 1 min
28 | O=C(CC1CCC(F)(F)CC1)NCC(=O)N1CCN(Cc2cc(Cl)cc(F)c2O)CC1 | 2800 | –
29 | O=C(CC12CC3CC(CC(C3)C1)C2)NCC(=O)N1CCN(Cc2cc(F)c(F)cc2Cl)CC1 | 1450 | –
30 | O=C(CC1CCC(F)(F)CC1)NCC(=O)N1CCN(Cc2cc(Cl)ccc2O)CC1 | 470 | –
31 | O=C(CC12CC3CC(CC(C3)C1)C2)NCC(=O)N1CCN(Cc2cc(Cl)cc(Cl)c2Cl)CC1 | 430 | –
32 | O=C(CC12CC3CC(CC(C3)C1)C2)NCC(=O)N1CCN(Cc2ccccc2OCc2ccc(-c3ncco3)cc2)CC1 | 270 | remaining at 4 h, 10 µM [2]: 37%; half-life at 1 µM [5]: 1 min; solubility kinetic [3]: 5 µM (≈ 2.91 µg/mL); fraction unbound at 6 h [4]: 0.003
